# From patent publication US7018639B1, “Vaccine antigens of Moraxella” (Commonwealth Scientific and Industrial Research Organisation, priority 1999, dated 2006)
# Tested on: M. bovis protease
# Type: biochemical, Moraxella bovis
# Conditions: 37° C.
smiles,measurement,value
"O=S(=O)(F)Cc1ccccc1 [PMSF, phenylmethylsulfonyl fluoride]",protease activity after inhibitor,zero
